Reference: ChEMBL document CHEMBL1135853, “Structure-activity relationships of the peptide deformylase inhibitor BB-3497: modification of the metal binding group” (Bioorg Med Chem Lett, 2002)
In brackets after ≈: the same amount, converted by molar mass.

Key:
[1] = tested on: Escherichia coli; test: Compound was evaluated for antibacterial activity against Escherichia coli; type: functional
[2] = tested on: Staphylococcus capitis; test: Compound was evaluated for antibacterial activity against Staphylococcus capitis; type: functional
[3] = target: Peptide deformylase (Escherichia coli) (UniProt P0A6K3); test: Compound was evaluated for inhibition of peptide deformylase, PDF.Ni of Escherichia coli at concentration of 1 uM
Sequence of Peptide deformylase (Escherichia coli) (P0A6K3 whole entry, looked up): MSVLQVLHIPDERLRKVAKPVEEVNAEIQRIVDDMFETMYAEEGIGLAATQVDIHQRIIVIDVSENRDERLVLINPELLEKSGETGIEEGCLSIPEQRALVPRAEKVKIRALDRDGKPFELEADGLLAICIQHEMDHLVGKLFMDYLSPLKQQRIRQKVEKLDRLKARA

[4] = tested on: Escherichia coli; test: Compound was evaluated for antibacterial activity against Escherichia coli in the range of 75-100 uM; Exerted a moderate antibacterial effect; type: functional

Row | Compound | MIC [1] [µM] | MIC [2] [µM] | inhibition [3] [%] | MIC [4] [µM]
1 | CCCC[C@H](NCC(=O)O)C(=O)N[C@H](C(=O)N(C)C)C(C)(C)C | > 200 | > 200 | – | –
2 | CCCC[C@H](CN(O)C(N)=O)C(=O)N[C@H](C(=O)N(C)C)C(C)(C)C | > 200 | > 200 | – | –
3 | CCCC[C@H](CC(=O)NO)C(=O)N[C@H](C(=O)N(C)C)C(C)(C)C | 25 (≈ 8.24 µg/mL) | 100 (≈ 32.9 µg/mL) | – | –
4 | CCCCC(CC(=N)NO)C(=O)N[C@H](C(=O)N(C)C)C(C)(C)C (stereo partly specified) | > 200 | > 200 | – | –
5 | CCCC[C@H](CNC=O)C(=O)N[C@H](C(=O)N(C)C)C(C)(C)C | > 200 | > 200 | – | –
6 | CCCC[C@H](OC(=O)NO)C(=O)N[C@H](C(=O)N(C)C)C(C)(C)C | > 200 | > 200 | 20 | –
7 | CCCC[C@H](CC(=O)NN)C(=O)N[C@H](C(=O)N(C)C)C(C)(C)C | > 200 | > 200 | – | –
8 | CCCC[C@H](CC(=O)O)C(=O)N[C@H](C(=O)N(C)C)C(C)(C)C | > 200 | > 200 | – | –
9 | CCCC[C@H](CS)C(=O)N[C@H](C(=O)N(C)C)C(C)(C)C | > 200 | > 200 | 10 | –
10 | CCCC[C@H](CS)C(=O)N[C@@H](CCCCN)C(=O)Nc1ccc([N+](=O)[O-])cc1 | – | – | – | 75 (≈ 30.8 µg/mL)
11 | CCCCC(CP(=O)(O)O)C(=O)N[C@H](C(=O)N(C)C)C(C)(C)C (stereo partly specified) | > 200 | > 200 | – | –
12 | CCCC[C@H](NC(=O)NO)C(=O)N[C@H](C(=O)N(C)C)C(C)(C)C | > 200 | > 200 | 40 | –
13 | CCCC[C@H](CN(O)C(C)=O)C(=O)N[C@H](C(=O)N(C)C)C(C)(C)C | > 200 | > 200 | 60 | –
14 | CCCCC(C[PH](=O)O)C(=O)N[C@H](C(=O)N(C)C)C(C)(C)C (stereo partly specified) | > 200 | > 200 | – | –
